Data reported in EP1166782A2, “Anti-retroviral pharmaceutical compositions” (Yang, Chi-Chiang, priority 2000, dated 2002).
Like-named read-outs stand apart in the source and are kept apart here.

Tests used:
T cells-tropic (JRCSF) = assay: P24 quantification (P24 EIA) in infected PBMCs, JRCSF; type: cell-based, HIV-1; conditions: PBMC; for concentrations of the viral P24 antigen, JRCSF(+): (+) original concentration of compound maintained after washing; for concentrations of the viral P24 antigen, JRCSF(-): (-) compound removed after washing
Method: (§1) PBMCs were treated with various concentrations of CAPE, MC and PEDMC provided in Example 2 and simultaneously infected with […] and macrophage and T cells dual tropic (89.6) HIV-1 isolates. The next day, the added compounds were removed by washing methods or maintained at the same concentration. Samples were divided into two groups and the upernatants of the culture medium were collected at the 3 and 7 days after infection, respectively. The use of P24 EIA Reagent Kit of Abbott Laboratory compares the concentrations of viral P24 antigen with or without the compounds tested.

[1] = system: macrophage-tropic (NL-43); assay: P24 quantification (P24 EIA) in infected PBMCs, NL-43; type: cell-based, HIV-1; conditions: PBMC; for concentrations of the viral P24 antigen, NL43(+): (+) original concentration of compound maintained after washing; for concentrations of the viral P24 antigen, NL43(-): (-) compound removed after washing
Method: as §1

[2] = system: macrophage and T cells dual tropic (89.6); assay: P24 quantification (P24 EIA) in infected PBMCs, 89.6; type: cell-based, HIV-1; conditions: PBMC; for concentrations of the viral P24 antigen, 89.6(+): (+) original concentration of compound maintained after washing; for concentrations of the viral P24 antigen, 89.6(-): (-) compound removed after washing
Method: as §1

[3] = system: Peripheral Blood Mononuclear Cells (PBMC); conditions: for The numbers of dead cells in 400 cells' count / % viability: 48 hours; for The numbers of dead cells in 400 cells' count: control 9 dead cells; for % viability: viable cells versus control (391);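 for all read-outs here: trypan blue dye exclusion, cells stained and counted from quadruplicate dishes, DMSO vehicle kept under 0.5%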
Method: Viability of the cells was assayed by the trypan blue dye exclusion method. […] The concentration of DMSO was adjusted to be less than 0.5%. Cells from quadruplicated dishes were washed once with Hank's Balanced Salt Solution (HBSS). According to the process, the floating dead cells will be separated from the live monolayer cells. Then the cells were stained with trypan blue and counted. The total number of viable cells in the control group was considered as 100% viability and the agent-treated cells were compared with the control group for the determination of % viability. The % viability of agent-treated cells was calculated from the total number of viable cells in the control group and in the agent-treated group.

[4] = system: various HIV isolates (NL-43, JRCSF or 89.6); assay: P24 quantification, summary statements over all isolates; type: cell-based, HIV-1; conditions: Figures 3-5; PBMC infected with NL-43, JRCSF or 89.6
Method: as §1

cells = assay: Cellular activities in microculture tetrazolium (MTT) tests; type: cell-based
Method: The cellular activities were tested according to method as described in Alley M.C. et al, Cancer Res. 1988; 48(3):589-601. The principle of the method resides in that live cells can reduce MTT., i.e., 3-[4,5-dimethylthiazol-2-yl]-2,5-diphenyltetrazolium bromide)(tetrazolium salt) to formazan crystal through the dehydrogenase metabolism in Mitochondria. The crystal was dissolved in propanol and OD values were determined at 570 nm. The OD values can indicate the numbers of the live cells. The growth conditions of the cells were observed firstly. The cells were diluted to 2x10^4 cells/ml. 100µl sample taken by micropipet was placed in a 96-well plate. The plate was cultured for 24 hours as 37°C and 100µl of the compounds to be tested, which were prepared in medium, were added in each well. […] After culture for 4 hours, supernatant liquid was absorbed and 100 µl DMSO and 10µl /well was added. Each well was homogeneously mixed. The absorbance was determined at 570 nm.

COc1ccc(C=CC(=O)OCCc2ccccc2)cc1OC [PEDMC, phenethyl dimethyl caffeate]
concentrations of the viral P24 antigen, JRCSF(+) (T cells-tropic (JRCSF); 0.1 µM): 1000 unit
concentrations of the viral P24 antigen, JRCSF(-) (T cells-tropic (JRCSF); 0.1 µM): 1000 unit
concentrations of the viral P24 antigen, JRCSF(+) (T cells-tropic (JRCSF); 0.5 µM): 1000 unit
concentrations of the viral P24 antigen, JRCSF(-) (T cells-tropic (JRCSF); 0.5 µM): 1000 unit
concentrations of the viral P24 antigen, JRCSF(+) (T cells-tropic (JRCSF); 1 µM): 1000 unit
concentrations of the viral P24 antigen, JRCSF(-) (T cells-tropic (JRCSF); 1 µM): 1000 unit
concentrations of the viral P24 antigen, JRCSF(+) (T cells-tropic (JRCSF); 5 µM): 1000 unit
concentrations of the viral P24 antigen, JRCSF(-) (T cells-tropic (JRCSF); 5 µM): 1000 unit
concentrations of the viral P24 antigen, JRCSF(+) (T cells-tropic (JRCSF); 10 µM): 1000 unit
concentrations of the viral P24 antigen, JRCSF(-) (T cells-tropic (JRCSF); 10 µM): 1000 unit
concentrations of the viral P24 antigen, JRCSF(+) (T cells-tropic (JRCSF); 25 µM): 1000 unit
concentrations of the viral P24 antigen, JRCSF(-) (T cells-tropic (JRCSF); 25 µM): 1000 unit
concentrations of the viral P24 antigen, JRCSF(+) (T cells-tropic (JRCSF); 50 µM): 1000 unit
concentrations of the viral P24 antigen, JRCSF(-) (T cells-tropic (JRCSF); 50 µM): 1000 unit
concentrations of the viral P24 antigen, JRCSF(+) (T cells-tropic (JRCSF); 100 µM): 892.45 unit
concentrations of the viral P24 antigen, JRCSF(-) (T cells-tropic (JRCSF); 100 µM): 1000 unit
concentrations of the viral P24 antigen, JRCSF(+) (T cells-tropic (JRCSF); 200 µM): 452.46 unit
concentrations of the viral P24 antigen, JRCSF(-) (T cells-tropic (JRCSF); 200 µM): 1000 unit
concentrations of the viral P24 antigen, JRCSF(+) (T cells-tropic (JRCSF); 400 µM): 348.96 unit
concentrations of the viral P24 antigen, JRCSF(-) (T cells-tropic (JRCSF); 400 µM): 869.4 unit
concentrations of the viral P24 antigen, NL43(+) ([1]; 0.1 µM): 1000 unit
concentrations of the viral P24 antigen, NL43(-) ([1]; 0.1 µM): 1000 unit
concentrations of the viral P24 antigen, NL43(+) ([1]; 0.5 µM): 1000 unit
concentrations of the viral P24 antigen, NL43(-) ([1]; 0.5 µM): 1000 unit
concentrations of the viral P24 antigen, NL43(+) ([1]; 1 µM): 1000 unit
concentrations of the viral P24 antigen, NL43(-) ([1]; 1 µM): 1000 unit
concentrations of the viral P24 antigen, NL43(+) ([1]; 5 µM): 1000 unit
concentrations of the viral P24 antigen, NL43(-) ([1]; 5 µM): 1000 unit
concentrations of the viral P24 antigen, NL43(+) ([1]; 10 µM): 1000 unit
concentrations of the viral P24 antigen, NL43(-) ([1]; 10 µM): 1000 unit
concentrations of the viral P24 antigen, NL43(+) ([1]; 25 µM): 1000 unit
concentrations of the viral P24 antigen, NL43(-) ([1]; 25 µM): 1000 unit
concentrations of the viral P24 antigen, NL43(+) ([1]; 50 µM): 1000 unit
concentrations of the viral P24 antigen, NL43(-) ([1]; 50 µM): 1000 unit
concentrations of the viral P24 antigen, NL43(+) ([1]; 100 µM): 1000 unit
concentrations of the viral P24 antigen, NL43(-) ([1]; 100 µM): 1000 unit
concentrations of the viral P24 antigen, NL43(+) ([1]; 200 µM): 890.43 unit
concentrations of the viral P24 antigen, NL43(-) ([1]; 200 µM): 981.43 unit
concentrations of the viral P24 antigen, NL43(+) ([1]; 400 µM): 640.7 unit
concentrations of the viral P24 antigen, NL43(-) ([1]; 400 µM): 898.4 unit
concentrations of the viral P24 antigen, 89.6(+) ([2]; 0.1 µM): 1000 unit
concentrations of the viral P24 antigen, 89.6(-) ([2]; 0.1 µM): 1000 unit
concentrations of the viral P24 antigen, 89.6(+) ([2]; 0.5 µM): 1000 unit
concentrations of the viral P24 antigen, 89.6(-) ([2]; 0.5 µM): 1000 unit
concentrations of the viral P24 antigen, 89.6(+) ([2]; 1 µM): 1000 unit
concentrations of the viral P24 antigen, 89.6(-) ([2]; 1 µM): 1000 unit
concentrations of the viral P24 antigen, 89.6(+) ([2]; 5 µM): 1000 unit
concentrations of the viral P24 antigen, 89.6(-) ([2]; 5 µM): 1000 unit
concentrations of the viral P24 antigen, 89.6(+) ([2]; 10 µM): 965.48 unit
concentrations of the viral P24 antigen, 89.6(-) ([2]; 10 µM): 932.67 unit
concentrations of the viral P24 antigen, 89.6(+) ([2]; 25 µM): 886.42 unit
concentrations of the viral P24 antigen, 89.6(-) ([2]; 25 µM): 927.4 unit
concentrations of the viral P24 antigen, 89.6(+) ([2]; 50 µM): 747.3 unit
concentrations of the viral P24 antigen, 89.6(-) ([2]; 50 µM): 681.42 unit
concentrations of the viral P24 antigen, 89.6(+) ([2]; 100 µM): 238.49 unit
concentrations of the viral P24 antigen, 89.6(-) ([2]; 100 µM): 647 unit
concentrations of the viral P24 antigen, 89.6(+) ([2]; 200 µM): 187.59 unit
concentrations of the viral P24 antigen, 89.6(-) ([2]; 200 µM): 539.82 unit
concentrations of the viral P24 antigen, 89.6(+) ([2]; 400 µM): 84.85 unit
concentrations of the viral P24 antigen, 89.6(-) ([2]; 400 µM): 494.91 unit
The numbers of dead cells in 400 cells' count ([3]; 0.1 µM): 11
% viability ([3]; 0.1 µM): 389/391 (99.5%)
The numbers of dead cells in 400 cells' count ([3]; 0.5 µM): 10
% viability ([3]; 0.5 µM): 390/391 (99.7%)
The numbers of dead cells in 400 cells' count ([3]; 1 µM): 7
% viability ([3]; 1 µM): 393/391 (100.5%)
The numbers of dead cells in 400 cells' count ([3]; 5 µM): 11
% viability ([3]; 5 µM): 389/391 (99.5%)
The numbers of dead cells in 400 cells' count ([3]; 10 µM): 9
% viability ([3]; 10 µM): 391/391 (100%)
The numbers of dead cells in 400 cells' count ([3]; 25 µM): 8
% viability ([3]; 25 µM): 392/391 (100.3%)
The numbers of dead cells in 400 cells' count ([3]; 50 µM): 10
% viability ([3]; 50 µM): 390/391 (99.7%)
The numbers of dead cells in 400 cells' count ([3]; 100 µM): 10
% viability ([3]; 100 µM): 390/391 (99.7%)
The numbers of dead cells in 400 cells' count ([3]; 200 µM): 7
% viability ([3]; 200 µM): 393/391 (100.5%)
The numbers of dead cells in 400 cells' count ([3]; 400 µM): 6
% viability ([3]; 400 µM): 394/391 (100.8%)
viabilities of PBMC under high-dose versus low-dose treatments (result in words) ([3]; high dose up to 400 µM compared with 0.1-10 µM): no substantial differences
viral replications (result in words) [4]: significantly inhibited viral replications
MTT 24h, cellular activities (cells; 0.1 µM): 92.38 relative percentage
MTT 48h, cellular activities (cells; 0.1 µM): 97.31 relative percentage
MTT 24h, cellular activities (cells; 0.5 µM): 98.72 relative percentage
MTT 48h, cellular activities (cells; 0.5 µM): 98.72 relative percentage
MTT 24h, cellular activities (cells; 1 µM): 98.26 relative percentage
MTT 48h, cellular activities (cells; 1 µM): 105.28 relative percentage
MTT 24h, cellular activities (cells; 5 µM): 94.33 relative percentage
MTT 48h, cellular activities (cells; 5 µM): 104.07 relative percentage
MTT 24h, cellular activities (cells; 10 µM): 98.72 relative percentage
MTT 48h, cellular activities (cells; 10 µM): 98.08 relative percentage
MTT 24h, cellular activities (cells; 25 µM): 107.27 relative percentage
MTT 48h, cellular activities (cells; 25 µM): 98.78 relative percentage
MTT 24h, cellular activities (cells; 50 µM): 102.03 relative percentage
MTT 48h, cellular activities (cells; 50 µM): 97.15 relative percentage
MTT 24h, cellular activities (cells; 100 µM): 106.06 relative percentage
MTT 48h, cellular activities (cells; 100 µM): 97.74 relative percentage
MTT 24h, cellular activities (cells; 200 µM): 97.93 relative percentage
MTT 48h, cellular activities (cells; 200 µM): 96.32 relative percentage
MTT 24h, cellular activities (cells; 400 µM): 94.8 relative percentage
MTT 48h, cellular activities (cells; 400 µM): 93.76 relative percentage
cellular activities in MTT tests (result in words) (cells; Figures 1 and 2, 24 and 48 hours): no substantial effects
